Data from ChEMBL document CHEMBL4393720, “Design, synthesis and biological evaluation of bromophenol-thiazolylhydrazone hybrids inhibiting the interaction of translation initiation factors eIF4E/eIF4G as multifunctional agents for cancer treatment” (Eur J Med Chem, 2019).
Calls of active or inactive are those of the source. No cut-off for these calls is given here.

Key:
[1] = Subacute toxicity in SPF Kunming mouse assessed as behavioural abnormalities at 2000 mg/kg, po administered once a day for 14 days; format: organism-based; conditions: in vivo, 336 h
A549 [2] = experiment: Induction of autophagy in human A549 cells assessed as change in […] expression at 1 to 5 uM incubated for 48 hrs by Western blot analysis; format: functional, cell-based
A549 [3] = experiment: In vivo inhibition of PI3K/Akt/mTOR in human A549 cells xenografted in athymic nude mouse assessed as decrease in phosphorylation of 4EBP1 at 25 to 50 mg/kg, ip administered once daily for 21 days by Western blot analysis; format: functional, organism-based
[4] = Acute toxicity in SPF Kunming mouse assessed as mortality at 500 to 2000 mg/kg, po administered as single dose measured for 14 days; format: organism-based; conditions: in vivo, 336 h
[5] = Inhibition of PI3K/Akt/mTOR signalling pathway in human A549 cells assessed as reduction in mTOR phosphorylation at 1 to 5 uM incubated for 48 hrs by Western blot analysis; format: cell-based
[6] = Volume of distribution in steady state in male Sprague-Dawley rat at 2 mg/kg, iv measured up to 24 hrs by LC/MS-MS analysis; format: ADME, organism-based; conditions: in vivo, read-out: Vdss
[7] = Volume of distribution in steady state in female Sprague-Dawley rat at 2 mg/kg, iv measured up to 24 hrs by LC/MS-MS analysis; format: ADME, organism-based; conditions: in vivo, read-out: Vdss
[8] = Inhibition of PI3K/Akt/mTOR signalling pathway in human A549 cells assessed as reduction in Akt phosphorylation at 1 to 5 uM incubated for 48 hrs by Western blot analysis; format: cell-based
[9] = Toxicity in athymic nude mouse xenografted with human A549 cells assessed as effect on spleen morphological changes at 25 to 50 mg/kg, ip administered once daily for 21 days by H and E staining based assay; format: organism-based; conditions: in vivo, 504 h
A549 [10] = experiment: Induction of mitochondrial membrane potential loss in human A549 cells at 1 to 5 uM incubated for 48 hrs by JC-1 staining based flow cytometer analysis; format: functional, cell-based
[11] = Toxicity in athymic nude mouse xenografted with human A549 cells assessed as changes in body weight at 25 to 50 mg/kg, ip administered once daily for 21 days; format: organism-based; conditions: in vivo, 504 h
[12] = Cmax in male Sprague-Dawley rat at 2 mg/kg, iv measured up to 24 hrs by LC/MS-MS analysis; format: ADME, organism-based; design: dose 2 mg/kg, route intravenous; conditions: in vivo
A549 [13] = experiment: Induction of apoptosis in human A549 cells at 1 to 5 uM incubated for 48 hrs by annexin-V and propidium iodide staining based flow cytometric analysis; format: functional, cell-based
[14] = Toxicity in athymic nude mouse xenografted with human A549 cells assessed as effect on kidney morphological changes at 25 to 50 mg/kg, ip administered once daily for 21 days by H and E staining based assay; format: organism-based; conditions: in vivo, 504 h
[15] = Acute toxicity in SPF Kunming mouse assessed as body weight at 1000 mg/kg, po administered as single dose measured at day 14 (reference value: 34.7g); format: organism-based; conditions: in vivo
[16] = Volume of distribution in Sprague-Dawley rat at 2 mg/kg, iv measured up to 24 hrs by LC/MS-MS analysis; format: ADME, organism-based; conditions: in vivo
[17] = Oral bioavailability in male Sprague-Dawley rat at 10 mg/kg measured up to 24 hrs by LC/MS-MS analysis; format: ADME, organism-based; conditions: in vivo
[18] = Toxicity in athymic nude mouse xenografted with human A549 cells assessed as effect on lung morphological changes at 25 to 50 mg/kg, ip administered once daily for 21 days by H and E staining based assay; format: organism-based; conditions: in vivo, 504 h
[19] = target: Eukaryotic translation initiation factor 4E (Homo sapiens) (UniProt P06730); experiment: Inhibition of eIF4E phosphorylation in human A549 cells incubated for 48 hrs by immunofluorescence method; format: cell-based
Eukaryotic translation initiation factor 4E (Homo sapiens), sequence (P06730 whole entry): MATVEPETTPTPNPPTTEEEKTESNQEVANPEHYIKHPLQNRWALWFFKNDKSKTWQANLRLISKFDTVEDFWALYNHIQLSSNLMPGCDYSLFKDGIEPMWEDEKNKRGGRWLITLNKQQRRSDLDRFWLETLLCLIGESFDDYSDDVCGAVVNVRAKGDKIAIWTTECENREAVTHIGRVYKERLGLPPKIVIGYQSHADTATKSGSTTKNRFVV

A549 [20] = experiment: Induction of autophagy in human A549 cells assessed as change in ULK1 expression at 1 to 5 uM incubated for 48 hrs by Western blot analysis; format: functional, cell-based
[21] = Subacute toxicity in SPF Kunming mouse assessed as liver morphological changes at 2000 mg/kg, po administered once a day for 14 days by H and E staining based microscopic analysis; format: organism-based; conditions: in vivo, 336 h
[22] = Half life in male Sprague-Dawley rat at 10 mg/kg, po measured up to 24 hrs by LC/MS-MS analysis; format: ADME, organism-based; conditions: in vivo
A549 [23] = experiment: Induction of apoptosis in human A549 cells assessed as nuclear shrinkage and chromatin condensation at 1 to 5 uM incubated for 48 hrs by Hoechst 33258 staining based fluorescence microscopy; format: functional, cell-based
[24] = Tmax in female Sprague-Dawley rat at 2 mg/kg, iv measured up to 24 hrs by LC/MS-MS analysis; format: ADME, organism-based; conditions: in vivo
A549 [25] = experiment: Inhibition of eIF4E/eIF4G interaction in human A549 cells incubated for 48 hrs by m7GTP pull down assay; format: cell-based
[26] = Total plasma clearance in female Sprague-Dawley rat at 2 mg/kg, iv measured up to 24 hrs by LC/MS-MS analysis; format: ADME, organism-based
[27] = MRT in female Sprague-Dawley rat at 2 mg/kg, iv measured up to 24 hrs by LC/MS-MS analysis; format: ADME, organism-based; conditions: in vivo
A549 [28] = experiment: In vivo inhibition of PI3K/Akt/mTOR signalling pathway in human A549 cells xenografted in athymic nude mouse assessed as decrease in phosphorylation of PI3K at 25 to 50 mg/kg, ip administered once daily for 21 days by Western blot analysis; format: functional, organism-based
[29] = Subacute toxicity in SPF Kunming mouse assessed as body weight at 2000 mg/kg, po administered once a day for 7 days (reference value: 28.4g); format: organism-based; conditions: in vivo, 168 h
[30] = AUC (0 to 24 hrs) in male Sprague-Dawley rat at 10 mg/kg, po measured up to 24 hrs by LC/MS-MS analysis; format: ADME, organism-based; design: time < 24 hr, dose 10 mg/kg, route oral; conditions: in vivo
A549 [31] = experiment: In vivo inhibition of eIF4E in human A549 cells xenografted in athymic nude mouse assessed as decrease in phosphorylation of eIF4E at 25 to 50 mg/kg, ip administered once daily for 21 days by immunocytochemistry; format: functional, organism-based
A549 [32] = experiment: Decrease in phosphorylation of Ki67 in human A549 cells xenografted in athymic nude mouse at 25 to 50 mg/kg, ip administered once daily for 21 days by immunocytochemistry; format: functional, organism-based
[33] = Cmax in female Sprague-Dawley rat at 2 mg/kg, iv measured up to 24 hrs by LC/MS-MS analysis; format: ADME, organism-based; design: dose 2 mg/kg, route intravenous; conditions: in vivo
U-87 MG = experiment: Antiproliferative activity against human U87MG cells assessed as inhibition of cell growth incubated for 48 hrs by MTT assay; format: functional, cell-based, U-87MG ATCC
[34] = Total plasma clearance in male Sprague-Dawley rat at 2 mg/kg, iv measured up to 24 hrs by LC/MS-MS analysis; format: ADME, organism-based
A549 [35] = experiment: Inhibition of eIF4E/eIF4G interaction in human A549 cells at 2.5 uM incubated for 24 hrs by proximity ligation assay; format: cell-based
[36] = Subacute toxicity in SPF Kunming mouse assessed as body weight at 2000 mg/kg, po administered once a day for 14 days (reference value: 32g); format: organism-based; conditions: in vivo, 336 h
A549 [37] = experiment: Induction of apoptosis in human A549 cells assessed as activation of PARP at 1 to 5 uM incubated for 48 hrs by Western blot analysis; format: functional, cell-based

In the case of Fc1ccc(/C=N/Nc2nc(-c3ccc(C(F)(F)F)cc3)cs2)cc1F, the Activity [1] is reported as “Non-Toxic”, the Activity (A549 [2]) is reported as “Active” and the inhibition (A549 [3]) is reported as “Active”. For the same molecule, the Activity [4] was “Non-Toxic”, the inhibition [5] was “Active” and the Vd [6] was 0.12 L/kg. For the same molecule, the Vd [7] was 0.19 L/kg, the inhibition [8] was “Active” and the Activity [9] was “Non-Toxic”. For the same molecule, the Activity (A549 [10]) was “Active”, the Activity [11] was “Non-Toxic” and the Cmax [12] was 149 µM. The Activity (A549 [13]) was “Active”, the Activity [14] was “Non-Toxic” and the Activity [15] was 34.9 g. For the same molecule, the Vd [16] was 0.67 L/kg, the bioavailability [17] was 17.2% and the Activity [18] was “Non-Toxic”. For the same molecule, the inhibition [19] was “Active”, the Activity (A549 [20]) was “Active” and the Activity [21] was “Non-Toxic”. For the same molecule, the half-life [22] was 1.27 h, the Activity (A549 [23]) was “Active” and the Tmax [24] was 2 h. The inhibition (A549 [25]) was “Active”, the clearance [26] was 0.667 mL/min/kg and the MRT [27] was 5.09 h. For the same molecule, the inhibition (A549 [28]) was “Active”, the Activity [29] was 28 g and the AUC(0-t) at 24 h [30] was 5.34 µM·h. For the same molecule, the inhibition (A549 [31]) was “Active”, the inhibition (A549 [32]) was “Active” and the Cmax [33] was 126 µM. The IC50 (U-87 MG) was 29.9 µM, the clearance [34] was 0.5 mL/min/kg and the inhibition (A549 [35]) was “Active”. For the same molecule, the Activity [36] was 30.7 g and the Activity (A549 [37]) was “Active”.
